Target: T1, GCase (Homo sapiens, UniProt P04062)
T1 construct: endogenous in cells; host or cells: HeLa cells
T1 sequence (P04062 40-536): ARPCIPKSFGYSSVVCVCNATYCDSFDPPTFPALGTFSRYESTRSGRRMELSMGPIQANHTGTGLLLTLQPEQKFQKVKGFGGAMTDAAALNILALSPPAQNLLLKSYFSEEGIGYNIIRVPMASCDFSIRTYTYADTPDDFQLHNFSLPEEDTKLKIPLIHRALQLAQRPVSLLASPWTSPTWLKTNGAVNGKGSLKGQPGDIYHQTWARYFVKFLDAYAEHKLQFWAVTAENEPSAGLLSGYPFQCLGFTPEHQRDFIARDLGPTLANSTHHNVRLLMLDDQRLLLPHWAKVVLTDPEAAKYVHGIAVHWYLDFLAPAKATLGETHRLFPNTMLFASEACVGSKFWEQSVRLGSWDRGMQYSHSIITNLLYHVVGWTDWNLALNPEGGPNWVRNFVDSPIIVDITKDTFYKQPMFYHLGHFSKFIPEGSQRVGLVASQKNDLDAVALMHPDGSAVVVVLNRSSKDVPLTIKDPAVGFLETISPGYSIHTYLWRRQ
Assay: activation of GCase in a live cell PFB assay in HELA cells
Assay type: cell-based
Procedure: Exemplary compounds were evaluated for activation of GCase in a live cell PFB assay in HELA cells (essentially as described in Ysselstein et al., “LRRK2 kinase activity regulates lysosomal glucocerebrosidase in neurons derived from Parkinson's disease patients” Nature Communications (2019) 10:5570). […] EC50 ranges: A: <10 μM; B: >10-50 μM; C: >50-100 μM; D: >100 μM.

[1] = activation of GCase, EC50 ranges

Row | Compound | EC50 [1] | EC50 (EC50 given as range classes)
1 | O=C1CC2(CN1c1ccc(C(F)(F)F)nc1)C1CCC2CN(c2cnc3cnn(CC(F)F)c3n2)C1 (stereo not drawn) [Cmpd 804] | – | 10 to 50 µM
2 | O=C1N(c2ccc(C(F)(F)F)cn2)CCC12C1CCC2CN(c2cnc3cnn(CC(F)F)c3n2)C1 (stereo not drawn) [Cmpd 800] | – | < 10 µM
3 | O=C1CC2(CCN(c3cnc4cnn(C5COC5)c4n3)CC2)CN1c1cncc(C(F)(F)F)n1 [Cmpd 277] | 10 to 50 µM | –
4 | O=C1N(c2ccc(C(F)(F)F)nc2)CCC12C1CCC2CN(c2cnc3cnn(CC(F)F)c3n2)C1 (stereo not drawn) [Cmpd 799] | – | < 10 µM
5 | Cc1nc(N2CC3(CCN(c4ccc5nccn5n4)C3)C2)cc(C(F)(F)F)n1 [Cmpd 637] | 10 to 50 µM | –
6 | COc1nc(N2CCC3(CC2)CCN(c2cc(C(F)(F)F)ccn2)C3=O)nc2c1cnn2CC(F)F [Cmpd 303] | < 10 µM | –
7 | CCN1C(=O)N(c2ccnc(C(F)(F)F)c2)C(=O)C12CCN(c1cnc3c(C)nn(C4COC4)c3n1)CC2 [Cmpd 984] | – | < 10 µM
8 | CCN1C(=O)N(c2ccc(C(F)(F)F)nc2)C(=O)C12CCN(c1cnc3cnn(C4COC4)c3n1)CC2 [Cmpd 866] | 10 to 50 µM | –
9 | Cc1nn(C2COC2)c2nc(N3CCC4(CC3)CN(c3cc(C(F)(F)F)ccn3)C4)ncc12 [Cmpd 479] | > 100 µM | –
10 | Cc1nc(N2CCC3(CCN(c4ncc5c(C)nn(CC(F)F)c5n4)CC3)C2)cc(C(F)(F)F)n1 [Cmpd 576] | 10 to 50 µM | –
11 | Cc1ncc(-c2nncs2)nc1N1CCC2(CN(c3cnc(C(F)(F)F)nc3)C2)C1 [Cmpd 1038] | 10 to 50 µM | –
12 | O=C1CC2(CN(c3ccnc(C(F)(F)F)c3)C2)CN1c1ncc2cnn(C3COC3)c2n1 [Cmpd 1008] | – | 10 to 50 µM
13 | CCN1C(=O)N(c2ccc(C(F)(F)F)cc2)C(=O)C12CCN(c1cnc3cnn(CC(F)F)c3n1)CC2 [Cmpd 868] | 10 to 50 µM | –
14 | Cc1nc(N2CCC3(CCN(c4cc5c(cn4)cnn5CC(F)F)CC3)C2)cc(C(F)(F)F)n1 [Cmpd 633] | – | < 10 µM
15 | Cc1cc(CN2CC3(CCN(c4cnc5cnn(CC(F)F)c5n4)CC3)CC2=O)on1 [Cmpd 972] | 10 to 50 µM | –
16 | Cc1nn(CC(F)F)c2nc(N3CCC4(CC3)CCN(c3cncc(C(F)(F)F)n3)C4=O)cnc12 [Cmpd 271] | 10 to 50 µM | –
17 | O=C1N(c2nnc(C(F)(F)F)o2)CCC12CCN(c1cnc3cnn(CC(F)F)c3n1)CC2 [Cmpd 839] | < 10 µM | –
18 | Cc1nc(N2CC3(CCN(c4cnc5cnn(CC(F)F)c5n4)C3=O)C2)cc(C(F)(F)F)n1 [Cmpd 524] | < 10 µM | –

Row | Compound | EC50 [1] | EC50 (EC50 given as range classes)
19 | Fc1cc(F)cc(OC2CC3(CCCN(c4cnc5cnn(CC(F)F)c5n4)C3)C2)c1 (stereo not drawn) [Compound 31, 6-[1-(2,2-difluoroethyl)-1H-pyrazolo[3,4-b]pyrazin-6-yl]-2-(3,5-difluorophenoxy)-6-azaspiro[3.5]nonane] | 10 to 50 µM | –
20 | CCCn1c(N2CCC3(CN(c4cc(C(F)(F)F)nc(C)n4)C3)C2)nc2c(cnn2CC(F)F)c1=O [Cmpd 1111] | 10 to 50 µM | –
21 | FC(F)c1ccnc(N2CCC3(CC2)CCN(c2cncc(-c4nncs4)n2)C3)c1 [Compound 164, 8-[4-(difluoromethyl)pyridin-2-yl]-2-[6-(1,3,4-thiadiazol-2-yl)pyrazin-2-yl]-2,8-diazaspiro[4.5]decane] | 10 to 50 µM | –
22 | O=C1N(c2ccc(C(F)(F)F)cn2)CCC12CCN(c1cnc3cnn(CC(F)F)c3n1)CC2 [Cmpd 678] | 10 to 50 µM | –
23 | O=C1N(c2cnc3cnn(CC(F)F)c3n2)CCC12CCN(c1cnc(C(F)(F)F)cn1)CC2 [Cmpd 772] | > 100 µM | –
24 | Cc1ccc(C(=O)N2CC3(CCN(c4cnc5cnn(CC(F)F)c5n4)C3)C2)cc1 [Cmpd 419] | – | 10 to 50 µM
25 | Cc1nc(N2CC3(CCN(c4ncc5cnn(CC(F)(F)F)c5n4)CC3)C2)cc(C(F)(F)F)n1 [Cmpd 566] | < 10 µM | –
26 | Cc1nc(N2CC3(CCN(c4cncc(-c5ccn(CC(F)(F)F)n5)n4)C3)C2)cc(C(F)(F)F)n1 [Cmpd 1120] | > 100 µM | –
27 | O=C1N(c2cc(C(F)(F)F)ccn2)C(=O)C2(CCN(c3cnc4cnn(CC(F)F)c4n3)CC2)N1CC1CC1 [Cmpd 711] | 10 to 50 µM | –
28 | O=C1CC2(CCN(c3cnc4cnn(CC(F)F)c4n3)CC2)CN1Cc1cncc(C(F)(F)F)c1 [Cmpd 335] | 10 to 50 µM | –
29 | Cc1nc(N2CC3(CCN(c4cnc5cnn([C@@H]6CCOC6)c5n4)C3)C2)cc(C(F)(F)F)n1 [Cmpd 1144] | < 10 µM | –
30 | O=C1CC2(CCN(c3cncc(-c4nncs4)n3)CC2)CN1c1ccc(C(F)(F)F)nc1 [Cmpd 236] | < 10 µM | –
31 | CCN1C(=O)N(c2ccnc(C(F)(F)F)n2)C(=O)C12CCN(c1cnc3cnn(C4COC4)c3n1)CC2 [Cmpd 909] | 10 to 50 µM | –
32 | CCc1nccn1-c1cncc(N2CCC3(CC2)CCN(c2cc(C(F)(F)F)ccn2)C3=O)n1 [Cmpd 262] | < 10 µM | –
33 | Cc1nc(N2CCC3(CCN(c4cnc5c(C)nn(C6COC6)c5n4)CC3)C2)cc(C(F)(F)F)n1 [Cmpd 549] | > 100 µM | –
34 | Cn1c(N2CCC3(CC2)CC(=O)N(c2ccc(C(F)(F)F)nc2)C3)nc2c(cnn2CC(F)F)c1=O [Cmpd 925] | 10 to 50 µM | –
35 | O=C1CC2(CCN(c3cnc4cnn(CC(F)F)c4n3)CC2)CN1Cc1ccc(OC(F)(F)F)cc1 [Cmpd 441] | < 10 µM | –
36 | FC(F)c1ccc(N2CCCC3(C2)CN(c2cncc(-c4nncs4)n2)C3)cn1 [Compound 160, 6-[6-(difluoromethyl)pyridin-3-yl]-2-[6-(1,3,4-thiadiazol-2-yl)pyrazin-2-yl]-2,6-diazaspiro[3.5]nonane] | 10 to 50 µM | –

Second part, the molecule after the results:

Row | EC50 [1] | EC50 (EC50 given as range classes) | Compound
37 | 10 to 50 µM | – | FC(F)Cn1ncc2ncc(N3CCCC4(C3)CN(c3ccncc3C(F)(F)F)C4)nc21 [Compound 35, 6-[1-(2,2-difluoroethyl)-1H-pyrazolo[3,4-b]pyrazin-6-yl]-2-[3-(trifluoromethyl)pyridin-4-yl]-2,6-diazaspiro[3.5]nonane]
38 | 10 to 50 µM | – | O=C1CC2(CCN(c3cccc(C(F)(F)F)n3)CC2)CN1c1cnc2cnn(CC(F)F)c2n1 [Compound 100, 2-[1-(2,2-difluoroethyl)-1H-pyrazolo[3,4-b]pyrazin-6-yl]-8-[6-(trifluoromethyl)pyridin-2-yl]-2,8-diazaspiro[4.5]decan-3-one]
39 | < 10 µM | – | FC(F)Cn1ncc2ncc(N3CCCC4(CC(Oc5cnccc5C(F)(F)F)C4)C3)nc21 (stereo not drawn) [Compound 10, 6-[1-(2,2-difluoroethyl)-1H-pyrazolo[3,4-b]pyrazin-6-yl]-2-{[4-(trifluoromethyl)pyridin-3-yl]oxy}-6-azaspiro[3.5]nonane]
40 | > 100 µM | – | Cc1nc2cnn(CC(F)F)c2nc1N1CCC2(CN(c3cnc(C(F)(F)F)nc3)C2)C1 [Cmpd 1036]
41 | < 10 µM | – | FC(F)Cn1ncc2ncc(N3CCC4(CC3)CN(c3ccnc(C(F)(F)F)c3)C4)nc21 [Compound 68, 7-[1-(2,2-difluoroethyl)-1H-pyrazolo[3,4-b]pyrazin-6-yl]-2-[2-(trifluoromethyl)pyridin-4-yl]-2,7-diazaspiro[3.5]nonane]
42 | – | 10 to 50 µM | FC(F)Cn1ncc2ncc(N3CCC4(CCN(c5ccc(C(F)(F)F)cn5)CC4)CC3)nc21 [Cmpd 810]
43 | – | > 100 µM | Cc1cnc(N2CCC3(CCN(c4cnc5cnn(CC(F)F)c5n4)CC3)C2)nc1C(F)(F)F [Cmpd 785]
44 | 50 to 100 µM | – | Cc1cc(C(F)(F)F)cnc1N1CC2(CCN(c3cnc4cnn(CC(F)F)c4n3)C2)C1 [Cmpd 437]
45 | 10 to 50 µM | – | FC(F)Cn1ncc2ncc(N3CCC4(CC3)CN(c3cncc(C(F)(F)F)c3)C4)nc21 [Compound 69, 7-[1-(2,2-difluoroethyl)-1H-pyrazolo[3,4-b]pyrazin-6-yl]-2-[5-(trifluoromethyl)pyridin-3-yl]-2,7-diazaspiro[3.5]nonane]
46 | – | 10 to 50 µM | O=S(=O)(CCC(F)(F)F)N1CC2(CCN(c3cnc4cnn(CC(F)F)c4n3)C2)C1 [Cmpd 415]
47 | 10 to 50 µM | – | O=C1CC2(CCCN(c3cnc4cnn(CC(F)F)c4n3)C2)CN1c1cccc(C(F)(F)F)n1 (stereo not drawn) [Compound 95, 7-[1-(2,2-difluoroethyl)-1H-pyrazolo[3,4-b]pyrazin-6-yl]-2-[6-(trifluoromethyl)pyridin-2-yl]-2,7-diazaspiro[4.5]decan-3-one]
48 | – | < 10 µM | O=S(=O)(c1cccc(Cl)c1)N1CC2(CCN(c3cnc4cnn(CC(F)F)c4n3)C2)C1 [Cmpd 418]
49 | < 10 µM | – | FC(F)(F)Cn1ncc2ncc(N3CCC4(CCN(c5cnc(C(F)(F)F)nc5)C4)C3)nc21 (stereo not drawn) [Cmpd 531]
50 | < 10 µM | – | FC(F)Cn1ncc2ncc(N3CC4(CCN(c5cnc(C(F)(F)F)cn5)CC4)C3)nc21 [Cmpd 770]
51 | 10 to 50 µM | – | FC(F)Cn1ncc2ncc(N3CCCC4(CN(c5cc(C(F)(F)F)ccn5)C4)C3)nc21 [Compound 38, 6-[1-(2,2-difluoroethyl)-1H-pyrazolo[3,4-b]pyrazin-6-yl]-2-[4-(trifluoromethyl)pyridin-2-yl]-2,6-diazaspiro[3.5]nonane]
52 | 10 to 50 µM | – | FC(F)Cn1ncc2ncc(N3CCC4(CCCN(c5cccc(C(F)(F)F)n5)C4)C3)nc21 (stereo not drawn) [Compound 36, 2-[1-(2,2-difluoroethyl)-1H-pyrazolo[3,4-b]pyrazin-6-yl]-7-[6-(trifluoromethyl)pyridin-2-yl]-2,7-diazaspiro[4.5]decane]
53 | 10 to 50 µM | – | FC(F)Cn1ncc2ncc(N3CCC4(CN(c5ccnc(C(F)(F)F)n5)C4)C3)nc21 [Cmpd 318]
54 | < 10 µM | – | FC(F)Cn1ncc2ncc(N3CCC4(CC3)CN(c3cccc(C(F)(F)F)n3)C4)nc21 [Compound 77, 7-[1-(2,2-difluoroethyl)-1H-pyrazolo[3,4-b]pyrazin-6-yl]-2-[6-(trifluoromethyl)pyridin-2-yl]-2,7-diazaspiro[3.5]nonane]
